Test results: patent publication EP1379634B1 (THE UNIVERSITY OF GEORGIA RESEARCH FOUNDATION, INC., priority 2001, dated 2002)
Residues, ends and D or L forms follow the SMILES beside them. *: point of attachment. AFC = O=c1cc(C(F)(F)F)c2ccc(N*)cc2o1; MeOSuc = COC(=O)CCC(=O)*; Cbz = O=C(OCc1ccccc1)*; Boc = CC(C)(C)OC(=O)*

Experiments:
[1] = tested on: purified Taenia solium cysteine protease; assay: Competitor assay of low Vmax substrates (vehicles) against high Vmax substrate cocktails (Step III), purified protease; format: biochemical; conditions: vehicle 8X10^-6 M; for inhibition with the final cocktail (7.4%): 7.4% cocktail (five high Vmax substrates, 1X10^-6 M each); for V Value: V = P * M, P inhibition with first (1.4%) cocktail, M with last (7.4%) cocktail, each cocktail substrate 1X10^-6 M; for inhibition with the 1.4% cocktail: 1.4% cocktail (Z-FR-AFC 1X10^-6 M)
Experimental: The top 1.4% of substrates (out of 67) in the full panel of substrates with the highest Vmax values were chosen to compose a "TOP 1.4% cocktail". (We employed "Vmax" here although Kcat could also be used). Due to the lower number of substrates, a percentage was not chosen for the "BOTTOM %" substrates. Alternately, all substrates which were not cleaved as determined by a value of 10 uM/hr or less, were chosen to be tested in this step for competitive ability. Hereinafter the term "vehicle" will represent low Vmax substrates that were capable of inhibiting cleavage of the percent cocktails. In this instance, we tested for "vehicles" which inhibited cleavage of the TOP 1.4% cocktail (they were delivered into the active site). Based upon our results from Step II, the top 1.4% cocktail was composed of Z-Phe-Arg-AFC, the highest cleaved substrate.
The experiment began with a competitor test between the noncleaved low Vmax substrates and the highest Vmax substrate, Z-Phe-Arg-AFC. Concentrations were varied between the low Vmax substrate and Z-Phe-Arg-AFC, as described above under "refinement of assay" until a relative inhibition profile was obtained.
The mixture was allowed to equilibrate for a period of 30 minutes. Finally, active purified enzyme was added to the tubes at a concentration that was always 50 times less than the concentration of the high and low Vmax substrates, respectively, in order to insure saturation conditions. This concentration varied from purification to purification and the amount added depended upon the yield and specific activity of the purified protease.
Positive controls were set up in a manner similar to that described for test controls, except that solvent was added in substitution for the low Vmax substrate (in a volume equal to the low Vmax volume addition). All of the substrates could be dissolved in dimethylsulfoxide (DMSO), and therefore, this was the solvent of choice. Negative controls were set up by adding the low Vmax and the high Vmax substrate in a tube without the protease. All potential non-proteolytic induced liberation of AFC was therefore controlled for in this tube (a feature which also monitored stability of the AFC substrates, since these substrates will freely liberate AFC when unstable). A tube set was established for this negative control.
All controls were set up in triplicate, and experiments were repeated a minimum of five times. The assays were incubated at 37°C, for 18 hours overnight.
Percent inhibition was calculated as: %Inhibition = ((AFC positive for "Y"−AFC negative for "Y")−(AFC test−AFC negative for "Y"))/(AFC positive for "Y"−AFC negative for "Y") × 100 [formula]
A 2.9% cocktail of the high Vmax substrates was made. This was composed of Z-FR-AFC and the second most cleaved substrate, Z-FAR-AFC. The vehicles promoted from the initial screenings above were again tested for competitive inhibition ability with the new cocktails. Their concentrations were set identically to those which were "fixed" in the previous protocols. In other words, 8X10^-6 M of the vehicle was added to the culture tube with 1X10^-6 M of Z-FR-AFC and 1X10^-6 M of Z-FAR-AFC. Active protease was added last at a concentration that was 50 times less than the concentration of the high Vmax substrate (to ensure saturating conditions).
In similar experimental fashion, a 4.4%, 5.9%, and 7.4% cocktail were tested with each of the promising vehicles. Each increase in the percentage represented an increase by an additional high Vmax substrate. Each of the individual components in the cocktail were added at 1X10^-6 M each, to 8X10^-6 M of the vehicle. The composition of the cocktails was as follows: 4.4% cocktail: Z-FR-AFC, Z-FAR-AFC, and Z-AAK-AFC (third highest cleaved substrate); 5.9% cocktail: Z-FR-AFC, Z-FAR-AFC, Z-AAK-AFC, and AP-AFC (fourth highest cleaved substrate); 7.4% cocktail: […], Z-FAR-AFC, Z-AAK-AFC, AP-AFC, and Z-VLR-AFC. […]

[2] = tested on: Taenia solium crude mix; assay: Competitor assay of vehicles against high Vmax substrate cocktails (Step III), crude mix; format: biochemical
Source text: Step III for a crude mix proceeds as it would for a purified protease, except that Vm is used instead of kcat.
One of the most intriguing findings in this experiment was that a highly similar inhibition pattern for the competitor assay resulted when the crude mix was employed as the source of the target protease. Although there were some variations in the effects of inhibitor dilution, the most highly ranked vehicles remained inhibitory consistently in comparison to the profile with the target protease. The relative profile and composition of the top tier of vehicles was identical. Z-LLL-AFC, Z-LLY-AFC, Mu-LY-AFC, Boc-VPR-AFC, Z-SY-AFC, Z-RR-AFC, Z-FLF-AFC, and Z-LGR-AFC consistently emerged as the top eight vehicles (Fig. 5b), respectively, based upon their V values (Table 2). […] It was notable that the three vehicles had very similar V values. […] As was mentioned, this vehicle along with Z-LLL-AFC and Z-LLY-AFC, were consistently the most inhibitory vehicles. The V values of the most inhibitory vehicle series are shown below in Table 2. Again, a clear break between the first and second tier vehicles is discernible for the V value. Table 2. Vehicles and V value rankings.

[3] = tested on: purified Taenia solium cysteine protease; assay: Substrate cleavage screen of AFC-linked peptides (Step II), purified protease; format: biochemical; conditions: 0.4 M Citrate, pH 4.9, 0.01 M cysteine, 18 h, 37 °C
Experimental: In this step, the most efficacious substrate for detection of the cysteine protease (high Kcat substrate) was determined in vitro along with those substrates which were not well cleaved (low kcat substrates). From this point forward, the following conditions refer to all assays: "assay buffer" refers to 0.4 M Citrate, pH 4.9 (the pH optima of the protease). Incubation time was 18 hours at 37°C. These conditions were determined by our preliminary data to be best for kinetic evaluation of the protease. […] The experiments were conducted in 6X50 […] Borosilicate mini-culture tubes (Fisher Scientific), and a fluorometer (Turner) was employed for detection of AFC cleavage.
Since the full 8,420 amino acid possibilities for cleavage were not available, representative substrates were employed. […] In order to choose this subset, representative amino acids (i.e., selected from the categories of acidic, basic, nonpolar, uncharged) were chosen so as to create as many categories of motifs as feasible for the P3-P1 positions with a set of 67 small peptides (see lists at Fig. 4a and Fig. 4b). The target cysteine protease from Taenia solium was isolated using the purification methods described previously in the patent WO 00/63350.
Approximately 1 ug (or a proteolytically detectable amount) of the purified target cysteine protease was incubated individually, with 1 ug of each of the available substrates in 500 uL of assay buffer. During this setup, the substrate was pre-incubated in the assay buffer for a short period of time (20 minutes) in order to reach an equilibrated status before the addition of the protease. Cleavage assessments were based upon the property of the protease to cleave synthetic peptide substrates linked at the C-terminus to 7-Amino-4-Trifluoromethyl Coumarin (AFC) as previously described. AFC linked tripeptides, dipeptides, and monopeptides, (with a variety of permutations at P3-P1) were available from Enzyme Systems Products (Livermore, CA), and were used as the source of the subset. Following incubation of enzyme preparations overnight (18 h, 37 °C) with peptide in assay buffer (Citrate, pH 4.9, supplemented with 0.01 M cysteine), free AFC concentrations were measured fluorometrically (excitation 405 nm, emission 505 nm). The proteolytic cleavage released the AFC group, which was measurable as a free molecule by a standard fluorometer and converted into molar quantities, based upon a previously established standard curve. The simplicity of AFC detection by the fluorometer was a key factor which expedited and simplified the procedures.
In the assay, 1 ug of the purified Taenia cysteine protease was added to a saturating amount of Z-Phe-Arg-AFC (4X10^-5 M) in assay buffer. The experiment was conducted in triplicate and repeated at least 5 times until we were certain that variability in AFC cleavage was not statistically significant.
Vmax for the cleavage of substrates by the purified target protease and Vmax for substrates cleaved by the crude mix protease were each calculated using conventional kinetic modeling calculations already described in the art.

[4] = tested on: BALB/c mice; assay: Observation of side effects in treated mice; format: in vivo; conditions: long-term studies

Compound	inhibition with the final cocktail (7.4%) [1]	Tier [2]	cleavage of AFC substrate (Vmax) [3]	further results
N=C(N)NCCC[C@H](NC(=O)OCc1ccccc1)C(=O)N[C@@H](CCCNC(=N)N)C(=O)Nc1ccc2c(C(F)(F)F)cc(=O)oc2c1 [Z-RR-AFC] (Cbz-Arg-Arg-{AFC})	less than 20%	2 (The second tier was composed of those vehicles that produced inhibition between 20-50% inhibition when in the presence of the 1.4% cocktail)	–	V Value [1]: 0.09
N[C@@H](CCC(=O)O)C(=O)N[C@@H](Cc1ccc(O)cc1)C(=O)Nc1ccc2c(C(F)(F)F)cc(=O)oc2c1 [EY-AFC] (H-Glu-Tyr-{AFC})	–	–	not cleaved	–
CC(C)C[C@H](NC(=O)OCc1ccccc1)C(=O)N[C@@H](CCCNC(=N)N)C(=O)N[C@@H](CCCNC(=N)N)C(=O)Nc1ccc2c(C(F)(F)F)cc(=O)oc2c1 [Z-LRR-AFC] (Cbz-Leu-Arg-Arg-{AFC})	–	–	–	inhibition with the 1.4% cocktail [1]: greater than 20%
COC(=O)CCC(=O)N[C@@H](Cc1ccccc1)C(=O)N[C@@H](CC(C)C)C(=O)N[C@@H](Cc1ccccc1)C(=O)Nc1ccc2c(C(F)(F)F)cc(=O)oc2c1 [MeoSuc-FLF-AFC] (MeOSuc-Phe-Leu-Phe-{AFC})	–	–	not cleaved	–
O=C(N[C@@H](CO)C(=O)N[C@@H](Cc1ccc(O)cc1)C(=O)Nc1ccc2c(C(F)(F)F)cc(=O)oc2c1)OCc1ccccc1 [Z-SY-AFC] (Cbz-Ser-Tyr-{AFC})	less than 20%	2 (The second tier was composed of those vehicles that produced inhibition between 20-50% inhibition when in the presence of the 1.4% cocktail)	–	V Value [1]: 0.09; V Value ([2]; V = P * M): 0.09
CC(C)[C@H](NC(=O)OC(C)(C)C)C(=O)N1CCC[C@H]1C(=O)N[C@@H](CCCNC(=N)N)C(=O)Nc1ccc2c(C(F)(F)F)cc(=O)oc2c1 [B-VPR-AFC, Boc-Val-Pro-Arg-AFC] (Boc-Val-Pro-Arg-{AFC})	less than 20%	2 (The second tier was composed of those vehicles that produced inhibition between 20-50% inhibition when in the presence of the 1.4% cocktail)	noncleavable	V Value ([1]; listed as B-VPR-AC): 0.120
CC(C)CC(NC(=O)OCc1ccccc1)C(=O)NC(C=CS(=O)(=O)c1ccccc1)Cc1ccccc1 (stereo not drawn)	–	–	–	side effects in treated mice [4]: goiter and neurological problems
Cbz-Leu-Gly-Arg-{AFC} [Z-LGR-AFC]	less than 20%	–	noncleavable	inhibition with the 1.4% cocktail [1]: greater than 20%
